Tests used:
[1] = DRUGMATRIX: Tumor Necrosis Factor (TNF), Non-Selective radioligand binding (ligand: [125I] TNF-alpha); assay type: cell membranes, Membrane; details: u-937; Not Active = under 50% inhibition at 10 µM
[2] = biological target: Protein kinase C alpha type (Homo sapiens, UniProt P17252); assay type: cell-based; details: sf9;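 note: inhibition of PKCalpha kinase activity measured in an enzyme assay with histone as the phosphorylation substrate; in other assays of this panel Not Active means under 50% inhibition at 10 µM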
[3] = DRUGMATRIX: Platelet-Derived Growth Factor (PDGF) radioligand binding (ligand: [125I] PDGF); assay type: cell-based; details: nih3t3; Not Active = under 50% inhibition at 10 µM
[4] = DRUGMATRIX: Sigma2 radioligand binding (ligand: [3H] Ifenprodil); assay type: cell membranes, Rattus norvegicus, Wistar, Brain, Membrane; details: Not Active = under 50% inhibition at 10 µM
Calcitonin receptor = biological target: T1, Calcitonin receptor (Homo sapiens, UniProt P30988); assay type: cell membranes, Membrane; details: t47d; note: in other assays of this panel Not Active means under 50% inhibition at 10 µM
T1 sequence (P30988 whole entry): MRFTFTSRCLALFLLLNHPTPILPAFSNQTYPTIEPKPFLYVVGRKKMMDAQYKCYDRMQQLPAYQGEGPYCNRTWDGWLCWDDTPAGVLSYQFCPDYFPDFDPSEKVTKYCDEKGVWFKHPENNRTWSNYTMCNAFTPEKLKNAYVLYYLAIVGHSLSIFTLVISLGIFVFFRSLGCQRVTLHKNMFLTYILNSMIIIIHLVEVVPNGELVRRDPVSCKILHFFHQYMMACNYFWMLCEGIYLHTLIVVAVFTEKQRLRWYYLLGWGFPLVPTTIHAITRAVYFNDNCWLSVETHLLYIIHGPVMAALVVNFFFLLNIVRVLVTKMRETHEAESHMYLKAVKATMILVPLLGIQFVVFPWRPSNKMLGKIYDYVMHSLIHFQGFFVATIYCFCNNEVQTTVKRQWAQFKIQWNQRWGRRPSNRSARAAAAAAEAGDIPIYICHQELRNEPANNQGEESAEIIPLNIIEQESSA

Melanocortin receptor 3 = Melanocortin receptor 3 (Homo sapiens, UniProt P41968); assay type: cell membranes, HEK293, Membrane; note: in other assays of this panel Not Active means under 50% inhibition at 10 µM
Chain of Melanocortin receptor 3 (P41968 whole entry): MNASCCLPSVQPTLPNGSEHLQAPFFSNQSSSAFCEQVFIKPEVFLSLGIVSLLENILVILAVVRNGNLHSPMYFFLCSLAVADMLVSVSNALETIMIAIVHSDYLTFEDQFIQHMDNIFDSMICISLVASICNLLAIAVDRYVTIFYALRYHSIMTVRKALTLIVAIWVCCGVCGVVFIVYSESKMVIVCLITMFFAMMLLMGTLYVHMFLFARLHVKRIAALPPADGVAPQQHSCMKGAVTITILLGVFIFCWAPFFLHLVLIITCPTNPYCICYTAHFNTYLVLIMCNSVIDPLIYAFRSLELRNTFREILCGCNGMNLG

[5] = biological target: Prostaglandin G/H synthase 1 (Homo sapiens, UniProt P23219); test: biochemical; assay type: tissue-based, Platelet;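 note: inhibition of COX-1 enzyme activity, with arachidonic acid supplied as substrate; in other assays of this panel Not Active means under 50% inhibition at 10 µM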
Chain of Prostaglandin G/H synthase 1 (P23219 whole entry): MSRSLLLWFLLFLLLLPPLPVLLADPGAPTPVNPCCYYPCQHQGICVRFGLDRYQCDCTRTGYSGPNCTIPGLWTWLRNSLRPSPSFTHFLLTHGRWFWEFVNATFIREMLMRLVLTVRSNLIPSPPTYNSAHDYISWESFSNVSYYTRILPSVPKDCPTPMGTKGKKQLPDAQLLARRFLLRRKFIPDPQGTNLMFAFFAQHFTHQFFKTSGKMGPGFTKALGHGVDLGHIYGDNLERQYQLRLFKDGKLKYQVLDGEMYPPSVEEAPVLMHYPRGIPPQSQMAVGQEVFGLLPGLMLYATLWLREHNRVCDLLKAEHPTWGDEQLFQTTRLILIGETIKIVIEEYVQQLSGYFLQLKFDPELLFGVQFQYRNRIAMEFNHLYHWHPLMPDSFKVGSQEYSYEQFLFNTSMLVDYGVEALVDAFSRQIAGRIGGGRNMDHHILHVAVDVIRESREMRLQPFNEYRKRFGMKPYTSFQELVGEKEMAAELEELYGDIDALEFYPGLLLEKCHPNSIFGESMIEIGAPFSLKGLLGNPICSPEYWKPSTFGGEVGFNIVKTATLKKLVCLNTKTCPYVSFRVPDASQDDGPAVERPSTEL

Row | SMILES | IC50 [1] | Ki [1] | IC50 [2] | IC50 [3] | Ki [3] | IC50 [4] | Ki [4] | IC50 (Calcitonin receptor) | IC50 (Melanocortin receptor 3; hek293) | IC50 ([5]; platelet) | IC50 ([4]; read-out: IC50) [µM] | Ki ([4]; read-out: Ki) [µM] | IC50 (Melanocortin receptor 3; read-out: IC50) [µM] | Ki (Melanocortin receptor 3; read-out: Ki) [µM] | IC50 ([5]; read-out: IC50) [µM]
1 | CC(C)(C)NC(=O)[C@@H]1C[C@@H]2CCCC[C@@H]2CN1C[C@@H](O)[C@H](Cc1ccccc1)NC(=O)[C@H](CC(N)=O)NC(=O)c1ccc2ccccc2n1 | Not Active | Not Active | Not Active | Not Active | Not Active | Not Active | Not Active | Not Active | Not Active | Not Active |  |  |  |  | 
2 | CC(=O)[C@@]1(O)CC[C@H]2[C@@H]3C[C@H](C)C4=CC(=O)CC[C@]4(C)[C@H]3CC[C@@]21C | Not Active | Not Active | Not Active | Not Active | Not Active | Not Active | Not Active | Not Active | Not Active | Not Active |  |  |  |  | 
3 | N[C@@H](Cc1ccc(N(CCCl)CCCl)cc1)C(=O)O | Not Active | Not Active | Not Active | Not Active | Not Active | Not Active | Not Active | Not Active | Not Active | Not Active |  |  |  |  | 
4 | CCCCc1oc2ccccc2c1C(=O)c1cc(I)c(OCCN(CC)CC)c(I)c1 [AMIODARONE] |  |  | Not Active |  |  |  |  | Not Active |  | Not Active |  |  |  |  | 
5 | OCCN(CCO)c1nc(N2CCCCC2)c2nc(N(CCO)CCO)nc(N3CCCCC3)c2n1 [DIPYRIDAMOLE] | Not Active | Not Active | Not Active | Not Active | Not Active | Not Active | Not Active | Not Active | Not Active | Not Active |  |  |  |  | 
6 | Cc1oncc1C(=O)Nc1ccc(C(F)(F)F)cc1 [LEFLUNOMIDE] | Not Active | Not Active | Not Active | Not Active | Not Active | Not Active | Not Active | Not Active | Not Active | Not Active |  |  |  |  | 
7 | c1ccc([C@H]2CN3CCSC3=N2)cc1 [LEVAMISOLE] | Not Active | Not Active | Not Active | Not Active | Not Active |  |  | Not Active | Not Active | Not Active | 4.39 | 2.7 |  |  | 
8 | N[C@@H](Cc1ccc(O)c(O)c1)C(=O)O [LEVODOPA] | Not Active | Not Active | Not Active | Not Active | Not Active | Not Active | Not Active | Not Active | Not Active | Not Active |  |  |  |  | 
9 | N[C@@H](Cc1cc(I)c(Oc2ccc(O)c(I)c2)c(I)c1)C(=O)O [LIOTHYRONINE] |  |  | Not Active |  |  |  |  | Not Active | Not Active | Not Active |  |  |  |  | 
10 | O=NN(CCCl)C(=O)NC1CCCCC1 [LOMUSTINE] | Not Active | Not Active | Not Active | Not Active | Not Active | Not Active | Not Active | Not Active | Not Active | Not Active |  |  |  |  | 
11 | CCOC(=O)N1CCC(=C2c3ccc(Cl)cc3CCc3cccnc32)CC1 [LORATADINE] | Not Active | Not Active | Not Active | Not Active | Not Active | Not Active | Not Active | Not Active | Not Active | Not Active |  |  |  |  | 
12 | Cn1ccnc1S [METHIMAZOLE] | Not Active | Not Active | Not Active | Not Active | Not Active | Not Active | Not Active | Not Active | Not Active | Not Active |  |  |  |  | 
13 | CC[C@@H](CO)NC(=O)[C@@H]1C=C2c3cccc4[nH]cc(c34)C[C@H]2N(C)C1 [METHYLERGONOVINE] | Not Active | Not Active | Not Active | Not Active | Not Active | Not Active | Not Active | Not Active | Not Active | Not Active |  |  |  |  | 
14 | COc1nc(C)nc(Cl)c1NC1=NCCN1 [MOXONIDINE] | Not Active | Not Active | Not Active | Not Active | Not Active | Not Active | Not Active | Not Active | Not Active | Not Active |  |  |  |  | 
15 | COc1c(C)c2c(c(O)c1C/C=C(\C)CCC(=O)O)C(=O)OC2 [MYCOPHENOLIC ACID] | Not Active | Not Active | Not Active | Not Active | Not Active | Not Active | Not Active | Not Active | Not Active | Not Active |  |  |  |  | 
16 | O=c1ncn2nc(Sc3ccc(F)cc3F)ccc2c1-c1c(Cl)cccc1Cl [NEFLAMAPIMOD] | Not Active | Not Active | Not Active | Not Active | Not Active | Not Active | Not Active | Not Active | Not Active | Not Active |  |  |  |  | 
17 | CN1CCN(CCCN2c3ccccc3Sc3ccc(Cl)cc32)CC1 [PROCHLORPERAZINE] |  |  | Not Active |  |  |  |  | Not Active | Not Active | Not Active |  |  |  |  | 
18 | CO[C@H]1/C=C/O[C@@]2(C)Oc3c(C)c(O)c4c(O)c(c(/C=N/N5CCN(C)CC5)c(O)c4c3C2=O)NC(=O)/C(C)=C\C=C\[C@H](C)[C@H](O)[C@@H](C)[C@@H](O)[C@@H](C)[C@H](OC(C)=O)[C@@H]1C [RIFAMPIN] | Not Active | Not Active | Not Active | Not Active | Not Active | Not Active | Not Active | Not Active | Not Active | Not Active |  |  |  |  | 
19 | Nc1nc2ccc(OC(F)(F)F)cc2s1 [RILUZOLE] | Not Active | Not Active | Not Active | Not Active | Not Active | Not Active | Not Active | Not Active | Not Active | Not Active |  |  |  |  | 
20 | Cc1nc2n(c(=O)c1CCN1CCC(c3noc4cc(F)ccc34)CC1)CCCC2 [RISPERIDONE] |  |  | Not Active |  |  |  |  | Not Active | Not Active | Not Active |  |  |  |  | 
21 | C=CCC1(C(C)CCC)C(=O)NC(=O)NC1=O (stereo not given) [SECOBARBITAL] | Not Active | Not Active | Not Active | Not Active | Not Active | Not Active | Not Active | Not Active | Not Active | Not Active |  |  |  |  | 
22 | C[C@@H]1CN(c2c(F)c(N)c3c(=O)c(C(=O)O)cn(C4CC4)c3c2F)C[C@H](C)N1 [SPARFLOXACIN] | Not Active | Not Active | Not Active | Not Active | Not Active | Not Active | Not Active | Not Active | Not Active | Not Active |  |  |  |  | 
23 | Cc1noc(NS(=O)(=O)c2ccc(N)cc2)c1C [SULFISOXAZOLE] | Not Active | Not Active | Not Active | Not Active | Not Active | Not Active | Not Active | Not Active | Not Active | Not Active |  |  |  |  | 
24 | CSc1ccc(/C=C2/C(C)=C(CC(=O)O)c3cc(F)ccc32)cc1 [SULINDAC SULFIDE] | Not Active | Not Active | Not Active | Not Active | Not Active | Not Active | Not Active | Not Active | Not Active |  |  |  |  |  | 
25 | Nc1c2c(nc3ccccc13)CCCC2 [TACRINE] | Not Active | Not Active | Not Active | Not Active | Not Active | Not Active | Not Active | Not Active | Not Active | Not Active |  |  |  |  | 
26 | CC/C(=C(\c1ccccc1)c1ccc(OCCN(C)C)cc1)c1ccccc1 [TAMOXIFEN] |  |  | Not Active |  |  |  |  | Not Active |  |  |  |  | 19.9 | 17.3 | 4.39
27 | CC(C)N1CCN(c2ccc(OCC3COC(Cn4cncn4)(c4ccc(Cl)cc4Cl)O3)cc2)CC1 (stereo not given) [TERCONAZOLE] |  |  | Not Active |  |  |  |  | Not Active | Not Active | Not Active | 0.317 | 0.195 |  |  | 
28 | Nc1nc2nc[nH]c2c(=S)[nH]1 [THIOGUANINE] | Not Active | Not Active | Not Active | Not Active | Not Active | Not Active | Not Active | Not Active | Not Active |  |  |  |  |  | 0.601
29 | Cc1cccc(N(C)C(=S)Oc2ccc3ccccc3c2)c1 [TOLNAFTATE] | Not Active | Not Active | Not Active | Not Active | Not Active | Not Active | Not Active | Not Active | Not Active | Not Active |  |  |  |  | 
